Data on 2 molecules can be found in ChEMBL document CHEMBL4507274 (2021).

In general, inhibition refers to the change of the read-out against control, counted positive when it falls. A word on the IC50: it is the concentration that inhibits the measured activity by half. A higher IC50 goes with a need for much substance. One may read the TGI as the concentration at which net growth stops. Higher therefore signals less potent growth arrest.

The target in assay [1] is Muscarinic acetylcholine receptor M4 (Homo sapiens) (UniProt P08173). Conditions: Compound concentration 10.0 uM.
In assay [2] the target is Tyrosine-protein kinase ABL1 (Mus musculus) (UniProt P00520). The assay is described as follows: Abl (m) Upstate kinase activity assay. The following applies: Compound concentration 10.0 uM.
Assay [3] addresses ALK tyrosine kinase receptor (Homo sapiens) (UniProt Q9UM73). The experiment in a line: ALK (h) Upstate kinase activity assay. Conditions: Compound concentration 10.0 uM.
Assay [4] concerns the target AMP-activated protein kinase, AMPK (Rattus norvegicus) (UniProt P54645+Q09137+P80386+P80385+Q9QZH4+Q6V7V4+D4A7E4). The experiment in a line: AMPK (r) Upstate kinase activity assay. It counts as protein-complex assay. The following applies: Compound concentration 10.0 uM.
Assay [5] has as its target Tyrosine-protein kinase ABL2 (Mus musculus) (UniProt Q4JIM5). The experiment in a line: Arg (m) Upstate kinase activity assay. Conditions: Compound concentration 10.0 uM.
For assay [6], the system named is Saccharomyces cerevisiae. The assay is described as follows: CK1 (y) Upstate kinase activity assay. The following applies: Compound concentration 10.0 uM.
Assay [7] has as its target Receptor tyrosine-protein kinase erbB-4 (Homo sapiens) (UniProt Q15303). The assay is described as follows: ErbB4 (h) Upstate kinase activity assay. The following applies: Compound concentration 10.0 uM.
Assay [8] concerns the target Insulin receptor (Homo sapiens) (UniProt P06213). The experiment in a line: IR (h) Upstate kinase activity assay. Conditions: Compound concentration 10.0 uM.
For assay [9], the target named is Mitogen-activated protein kinase 1 (Mus musculus) (UniProt P63085). The assay is described as follows: MAPK2 (m) Upstate kinase activity assay. Conditions: Compound concentration 10.0 uM.
For assay [10], the target named is MAP kinase-activated protein kinase 2 (Homo sapiens) (UniProt P49137). The experiment in a line: MAPKAP-K2 (h) Upstate kinase activity assay. The following applies: Compound concentration 10.0 uM.
The target of assay [11] is Dual specificity mitogen-activated protein kinase kinase 1 (Homo sapiens) (UniProt Q02750). The assay is described as follows: MEKI (h) Upstate kinase activity assay. Conditions: Compound concentration 10.0 uM.
Assay [12] concerns the target Hepatocyte growth factor receptor (Homo sapiens) (UniProt P08581). The experiment in a line: Met (h) Upstate kinase activity assay. Conditions: Compound concentration 10.0 uM.
The target of assay [13] is T1, Serine/threonine-protein kinase Nek2 (Homo sapiens) (UniProt P51955).
T1 sequence (whole entry): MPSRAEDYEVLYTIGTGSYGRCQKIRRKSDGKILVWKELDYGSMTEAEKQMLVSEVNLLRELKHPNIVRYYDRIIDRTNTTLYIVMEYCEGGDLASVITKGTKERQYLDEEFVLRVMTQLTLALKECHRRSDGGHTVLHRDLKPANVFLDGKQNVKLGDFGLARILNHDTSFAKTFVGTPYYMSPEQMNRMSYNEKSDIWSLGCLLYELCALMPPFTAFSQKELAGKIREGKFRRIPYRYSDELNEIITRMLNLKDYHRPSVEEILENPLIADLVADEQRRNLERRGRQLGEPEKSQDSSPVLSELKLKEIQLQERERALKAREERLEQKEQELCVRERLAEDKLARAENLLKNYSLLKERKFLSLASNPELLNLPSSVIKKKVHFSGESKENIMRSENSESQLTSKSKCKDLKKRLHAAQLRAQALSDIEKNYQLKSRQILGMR
The assay is described as follows: NEK2 (h) Upstate kinase activity assay. The following applies: Compound concentration 10.0 uM.

Assay [14] has as its target Ribosomal protein S6 kinase beta-1 (Homo sapiens) (UniProt P23443). The experiment in a line: […] (h) Upstate kinase activity assay. Conditions: Compound concentration 10.0 uM.
Assay [15] addresses RAC-alpha serine/threonine-protein kinase (Homo sapiens) (UniProt P31749). The assay is described as follows: PKBalpha (h) Upstate kinase activity assay. The following applies: Compound concentration 10.0 uM.
Assay [16] has as its target Protein kinase C beta type (Homo sapiens) (UniProt P05771). The experiment in a line: PKCBI (h) Upstate kinase activity assay. Conditions: Compound concentration 10.0 uM.
Assay [17] concerns the target Protein kinase C delta type (Homo sapiens) (UniProt Q05655). The experiment in a line: PKCdelta (h) Upstate kinase activity assay. The following applies: Compound concentration 10.0 uM.
Assay [18] deals with T2, Tyrosine-protein kinase ZAP-70 (Homo sapiens) (UniProt P43403).
T2 sequence (whole entry): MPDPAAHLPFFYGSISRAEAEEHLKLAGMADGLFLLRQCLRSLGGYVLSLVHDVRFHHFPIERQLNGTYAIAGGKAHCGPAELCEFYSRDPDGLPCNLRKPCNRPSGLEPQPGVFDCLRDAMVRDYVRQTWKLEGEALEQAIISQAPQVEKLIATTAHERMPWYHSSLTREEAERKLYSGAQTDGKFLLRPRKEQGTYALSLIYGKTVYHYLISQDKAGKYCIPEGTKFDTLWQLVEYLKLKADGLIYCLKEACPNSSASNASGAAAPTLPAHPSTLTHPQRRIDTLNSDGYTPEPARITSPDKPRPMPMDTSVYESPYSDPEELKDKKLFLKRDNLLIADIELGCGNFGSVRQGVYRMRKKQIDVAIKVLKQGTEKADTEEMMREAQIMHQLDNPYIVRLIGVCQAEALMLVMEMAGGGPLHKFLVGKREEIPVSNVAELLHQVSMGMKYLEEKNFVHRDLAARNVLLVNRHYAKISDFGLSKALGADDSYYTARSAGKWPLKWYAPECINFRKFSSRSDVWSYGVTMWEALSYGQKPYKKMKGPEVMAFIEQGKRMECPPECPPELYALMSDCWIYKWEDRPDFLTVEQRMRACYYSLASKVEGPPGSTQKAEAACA
The experiment in a line: ZAP-70 (h) Upstate kinase activity assay. The following applies: Compound concentration 10.0 uM.

Assay [19] has as its system HT-29. The experiment in a line: Colon HT-29 cell line MDS Pharma Services Proliferation Assay. It counts as functional, cell-based, Homo sapiens.
Assay [20] can be described thus: Lymphoma1-1331-IJ- JAl cell line MDS Pharma Services Proliferation Assay. It counts as functional, cell-based, Homo sapiens.
For assay [21], the system named is PANC-1. The assay is described as follows: Pancreas PANC-1 cell line MDS Pharma Services Proliferation Assay. It counts as functional, cell-based, Homo sapiens.
Assay [22] addresses Rho-associated protein kinase 2 (Homo sapiens, UniProt O75116). Conditions: Compound concentration 10.0 uM.
Where [23] appears, read: Homo sapiens, Lymphoma1-1331-IJ- JAl.

Molecules are shown by their SMILES.

Chain of Tyrosine-protein kinase ABL1 (Mus musculus) (P00520 whole entry): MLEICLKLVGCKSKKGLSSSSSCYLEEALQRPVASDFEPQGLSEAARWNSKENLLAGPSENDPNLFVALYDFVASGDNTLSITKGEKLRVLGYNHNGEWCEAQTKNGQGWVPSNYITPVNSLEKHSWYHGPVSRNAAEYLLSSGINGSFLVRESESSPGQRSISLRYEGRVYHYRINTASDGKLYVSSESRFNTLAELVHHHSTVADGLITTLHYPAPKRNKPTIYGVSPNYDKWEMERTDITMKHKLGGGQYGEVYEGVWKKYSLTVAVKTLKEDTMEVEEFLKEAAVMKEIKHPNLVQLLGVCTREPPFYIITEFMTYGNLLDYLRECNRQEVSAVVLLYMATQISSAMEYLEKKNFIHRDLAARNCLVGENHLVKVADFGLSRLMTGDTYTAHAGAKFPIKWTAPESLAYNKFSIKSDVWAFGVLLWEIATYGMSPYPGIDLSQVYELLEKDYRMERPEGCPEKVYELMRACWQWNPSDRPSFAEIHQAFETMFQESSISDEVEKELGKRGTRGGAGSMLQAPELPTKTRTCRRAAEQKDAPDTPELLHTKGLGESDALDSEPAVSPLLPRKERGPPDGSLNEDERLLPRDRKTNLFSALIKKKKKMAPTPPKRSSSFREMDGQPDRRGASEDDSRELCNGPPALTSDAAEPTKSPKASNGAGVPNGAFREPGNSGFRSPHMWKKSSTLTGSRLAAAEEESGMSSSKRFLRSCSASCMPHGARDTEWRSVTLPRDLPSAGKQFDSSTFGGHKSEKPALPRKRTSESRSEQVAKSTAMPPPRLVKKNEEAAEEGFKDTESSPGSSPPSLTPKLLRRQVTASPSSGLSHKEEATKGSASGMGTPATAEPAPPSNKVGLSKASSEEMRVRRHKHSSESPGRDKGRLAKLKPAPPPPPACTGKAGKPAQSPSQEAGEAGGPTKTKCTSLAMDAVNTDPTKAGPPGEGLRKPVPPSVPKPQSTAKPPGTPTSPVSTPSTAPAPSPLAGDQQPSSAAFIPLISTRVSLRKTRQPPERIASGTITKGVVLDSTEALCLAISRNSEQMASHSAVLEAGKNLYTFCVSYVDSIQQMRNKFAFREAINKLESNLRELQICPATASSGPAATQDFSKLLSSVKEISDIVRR
Chain of RAC-alpha serine/threonine-protein kinase (Homo sapiens) (P31749 whole entry): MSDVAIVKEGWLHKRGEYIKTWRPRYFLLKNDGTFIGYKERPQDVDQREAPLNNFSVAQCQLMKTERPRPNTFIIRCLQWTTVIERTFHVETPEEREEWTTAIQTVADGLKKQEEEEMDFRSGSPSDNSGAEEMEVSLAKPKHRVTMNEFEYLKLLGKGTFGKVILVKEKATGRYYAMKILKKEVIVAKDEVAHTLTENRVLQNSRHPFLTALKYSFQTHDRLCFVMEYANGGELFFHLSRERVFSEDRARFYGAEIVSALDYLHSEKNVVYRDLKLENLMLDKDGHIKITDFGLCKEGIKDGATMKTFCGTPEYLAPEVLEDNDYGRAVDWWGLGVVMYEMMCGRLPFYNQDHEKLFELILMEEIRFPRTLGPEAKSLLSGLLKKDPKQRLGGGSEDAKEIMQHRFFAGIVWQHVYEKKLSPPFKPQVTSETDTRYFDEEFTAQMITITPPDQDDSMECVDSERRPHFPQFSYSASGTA
Chain of Ribosomal protein S6 kinase beta-1 (Homo sapiens) (P23443 whole entry, looked up): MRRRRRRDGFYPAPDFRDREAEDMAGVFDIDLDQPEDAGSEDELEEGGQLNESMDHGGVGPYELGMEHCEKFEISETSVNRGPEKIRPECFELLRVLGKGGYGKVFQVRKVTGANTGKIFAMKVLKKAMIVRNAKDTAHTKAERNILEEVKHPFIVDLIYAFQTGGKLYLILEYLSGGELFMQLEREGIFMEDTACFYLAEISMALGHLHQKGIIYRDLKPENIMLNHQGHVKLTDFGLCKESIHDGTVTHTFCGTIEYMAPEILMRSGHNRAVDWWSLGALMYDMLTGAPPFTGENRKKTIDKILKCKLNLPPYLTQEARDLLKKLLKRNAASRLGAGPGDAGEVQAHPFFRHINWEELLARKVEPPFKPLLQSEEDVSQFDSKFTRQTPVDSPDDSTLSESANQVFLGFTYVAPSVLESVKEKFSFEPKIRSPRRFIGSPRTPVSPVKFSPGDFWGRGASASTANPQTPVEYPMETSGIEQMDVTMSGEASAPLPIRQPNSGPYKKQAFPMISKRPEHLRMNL
Chain of MAP kinase-activated protein kinase 2 (Homo sapiens) (P49137 whole entry, looked up): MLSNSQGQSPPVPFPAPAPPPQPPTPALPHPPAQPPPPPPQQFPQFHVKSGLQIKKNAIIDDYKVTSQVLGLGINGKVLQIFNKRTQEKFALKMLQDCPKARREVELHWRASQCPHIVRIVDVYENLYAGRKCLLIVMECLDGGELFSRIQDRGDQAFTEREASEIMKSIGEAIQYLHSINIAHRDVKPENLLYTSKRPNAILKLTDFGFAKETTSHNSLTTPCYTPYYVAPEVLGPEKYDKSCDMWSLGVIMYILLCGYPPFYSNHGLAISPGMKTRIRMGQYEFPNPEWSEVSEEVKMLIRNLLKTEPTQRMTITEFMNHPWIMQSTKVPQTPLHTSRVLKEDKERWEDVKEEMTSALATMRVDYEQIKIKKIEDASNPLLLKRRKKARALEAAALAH
Chain of Tyrosine-protein kinase ABL2 (Mus musculus) (Q4JIM5 whole entry): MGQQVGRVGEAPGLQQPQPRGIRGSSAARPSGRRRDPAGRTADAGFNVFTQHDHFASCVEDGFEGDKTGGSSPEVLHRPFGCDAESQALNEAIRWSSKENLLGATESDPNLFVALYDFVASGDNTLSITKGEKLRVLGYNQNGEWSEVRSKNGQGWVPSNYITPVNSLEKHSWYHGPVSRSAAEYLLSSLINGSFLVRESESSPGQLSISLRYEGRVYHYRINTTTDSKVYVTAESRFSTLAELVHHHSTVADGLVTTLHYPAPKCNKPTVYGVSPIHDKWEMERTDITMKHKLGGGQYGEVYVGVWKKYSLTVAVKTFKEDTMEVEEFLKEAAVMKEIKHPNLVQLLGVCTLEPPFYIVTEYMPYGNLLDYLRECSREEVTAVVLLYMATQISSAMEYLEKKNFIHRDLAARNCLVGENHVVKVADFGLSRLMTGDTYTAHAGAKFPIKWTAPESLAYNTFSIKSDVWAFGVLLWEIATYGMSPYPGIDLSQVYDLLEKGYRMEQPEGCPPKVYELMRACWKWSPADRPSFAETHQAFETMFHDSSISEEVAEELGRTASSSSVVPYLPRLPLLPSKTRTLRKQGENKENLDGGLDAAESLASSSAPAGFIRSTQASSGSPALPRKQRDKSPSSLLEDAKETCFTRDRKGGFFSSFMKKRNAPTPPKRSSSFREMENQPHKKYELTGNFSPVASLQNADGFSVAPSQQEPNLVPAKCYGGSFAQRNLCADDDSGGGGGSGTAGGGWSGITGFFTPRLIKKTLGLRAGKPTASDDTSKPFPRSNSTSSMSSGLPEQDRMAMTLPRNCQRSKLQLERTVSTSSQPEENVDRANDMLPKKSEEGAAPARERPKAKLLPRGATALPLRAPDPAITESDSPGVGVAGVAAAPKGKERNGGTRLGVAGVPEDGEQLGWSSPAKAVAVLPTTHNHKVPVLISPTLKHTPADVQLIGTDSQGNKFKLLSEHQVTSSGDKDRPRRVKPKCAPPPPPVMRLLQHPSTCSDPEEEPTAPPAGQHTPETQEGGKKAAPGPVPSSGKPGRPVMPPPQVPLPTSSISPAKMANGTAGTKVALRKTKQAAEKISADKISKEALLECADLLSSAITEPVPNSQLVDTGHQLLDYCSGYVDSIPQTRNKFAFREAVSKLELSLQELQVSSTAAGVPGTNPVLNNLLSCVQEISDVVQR
Chain of Protein kinase C delta type (Homo sapiens) (Q05655 whole entry, looked up): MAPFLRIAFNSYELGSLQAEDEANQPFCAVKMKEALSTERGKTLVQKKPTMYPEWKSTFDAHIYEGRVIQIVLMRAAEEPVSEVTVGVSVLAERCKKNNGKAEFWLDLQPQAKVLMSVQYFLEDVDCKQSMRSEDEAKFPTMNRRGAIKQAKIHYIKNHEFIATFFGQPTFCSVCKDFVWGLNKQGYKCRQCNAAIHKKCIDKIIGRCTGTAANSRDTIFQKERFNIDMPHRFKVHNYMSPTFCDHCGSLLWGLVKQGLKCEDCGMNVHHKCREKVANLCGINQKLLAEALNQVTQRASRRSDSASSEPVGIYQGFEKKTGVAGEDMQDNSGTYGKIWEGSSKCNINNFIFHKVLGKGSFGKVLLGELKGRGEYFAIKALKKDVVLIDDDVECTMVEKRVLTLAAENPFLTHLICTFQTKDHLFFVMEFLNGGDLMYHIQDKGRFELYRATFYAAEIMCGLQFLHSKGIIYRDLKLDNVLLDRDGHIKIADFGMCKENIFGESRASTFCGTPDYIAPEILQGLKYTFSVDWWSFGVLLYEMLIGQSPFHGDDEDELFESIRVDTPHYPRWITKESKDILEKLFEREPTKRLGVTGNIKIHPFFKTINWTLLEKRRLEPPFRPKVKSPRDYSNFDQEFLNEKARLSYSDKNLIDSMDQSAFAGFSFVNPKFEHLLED
Chain of Dual specificity mitogen-activated protein kinase kinase 1 (Homo sapiens) (Q02750 whole entry): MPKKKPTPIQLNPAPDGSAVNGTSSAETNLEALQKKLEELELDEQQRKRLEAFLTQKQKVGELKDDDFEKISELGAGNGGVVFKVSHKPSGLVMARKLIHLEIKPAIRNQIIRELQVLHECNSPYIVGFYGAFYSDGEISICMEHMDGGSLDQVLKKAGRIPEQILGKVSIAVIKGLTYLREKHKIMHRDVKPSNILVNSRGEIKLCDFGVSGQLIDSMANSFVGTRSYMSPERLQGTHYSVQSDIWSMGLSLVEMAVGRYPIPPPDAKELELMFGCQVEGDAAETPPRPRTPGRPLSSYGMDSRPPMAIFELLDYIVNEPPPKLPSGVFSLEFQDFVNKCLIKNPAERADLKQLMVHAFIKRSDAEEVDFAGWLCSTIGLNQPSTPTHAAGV

For `Cn1cc(Cl)c2c(Oc3c(F)cc(Nc4cc(Cl)nc(N)n4)cc3F)ccnc21` [BAY-4900], the inhibition in [1] was -3.76%.

As to `Cc1c[nH]c2nccc(Oc3c(F)cc(Nc4cc(Cl)nc(N)n4)cc3F)c12` [BAY-549], the inhibition was 33% in assay [2]; 78% in [3]; 8% in assay [4]; 36% in [5]; 44% in [6]; 5% in assay [7]. Also, the inhibition in assay [8] was 59%; in [9], 21%; in assay [10], -6%; in assay [11] it was 9%; in assay [12] it was 82%; in [13], 19%. For the same molecule, the inhibition in [14] is 84%; in [15], 84%; in assay [16], 8%; in [17], 16%; in [18], -8%; in assay [22], 100%. The IC50 in assay [19] (Homo sapiens, HT-29) was 2.9 µM; in [20] (setting [23]), greater than 100 µM. In addition, the TGI was 19 µM in assay [19] (Homo sapiens, HT-29); greater than 100 µM in assay [20] (setting [23]); 45 µM in assay [21] (Homo sapiens, PANC-1). Further, the CC50 in assay [19] (Homo sapiens, HT-29, read-out: LC50 (the source's name)) was greater than 100 µM; in assay [20] (Homo sapiens, Lymphoma1-1331-IJ- JAl, read-out: LC50 (the source's name)), greater than 100 µM; in assay [21] (Homo sapiens, PANC-1, read-out: LC50 (the source's name)), greater than 100 µM. The “Mean % growth (n = 2) for 0.1 µM probe concentration” value in [19] (± SEM 1 % growth) came out at 95%; in assay [20] (± SEM 5 % growth) it was 103%; in assay [21] (± SEM 3 % growth), 86%. The “Mean % growth (n = 2) for 1.0 µM probe concentration” value in [19] (± SEM 1 % growth) is recorded as 75%; in assay [20] (± SEM 6 % growth) it was 97%; in assay [21] (± SEM 2 % growth), 87%. In addition, the figures for the “Mean % growth (n = 2) for 10.0 µM probe concentration” value in [19] (± SEM 4 % growth), in [20] (± SEM 1 % growth) and in assay [21] (± SEM 1 % growth) were 10%, 98% and 55%, respectively. Moreover, the “Mean % growth (n = 2) for 0.01 µM probe concentration” value in assay [19] (± SEM 8 % growth) was found to be 100%; in assay [20] (± SEM 8 % growth), 96%; in assay [21] (± SEM 8 % growth), 98%. Also, the “Mean % growth (n = 2) for 100.0 µM probe concentration” value in assay [19] (± SEM 9 % growth) was -38%; in assay [20] (± SEM 7 % growth), 80%; in [21] (± SEM 9 % growth), -31%.
